The subject of one assay is MM.1S. Description: Tumor cell proliferation inhibition (CellTiter-Meiluncell Luminescent Cell Viability Assay). It counts as cell-based. The note with it: Homo sapiens, MM1.S, MM.1S, 96 hours; for inhibition at 0.01 µM: 10 nM, read-out: Inhibition Rate at 10 nM (%); for inhibition at 0.5 µM: 500 nM, read-out: Inhibition Rate at 500 nM (%). An outline of the steps:
(§1)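 Following overnight seeding, tumor cells received serial compound dilutions to final levels that included 10 nM and 500 nM. Viability was assessed by luminescence at the end of the specified exposure time. Cultures were kept at 37°C with 5% CO2.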

A further assay has as its system MCF-7. Described as above. It counts as cell-based. The settings on record: Homo sapiens, 96 hours, Table I-2, ALK inhibitors; for inhibition at 0.01 µM: MCF7, 10 nM, read-out: Inhibition Rate at 10 nM (%); for inhibition at 0.5 µM: MCF7, 500 nM, read-out: Inhibition Rate at 500 nM (%). An outline of the steps:
as §1

Another assay concerns MV-4-11. The description is as above. It counts as cell-based. The settings on record: Homo sapiens, 96 hours; for inhibition at 0.01 µM: MV4-11, 10 nM, read-out: Inhibition Rate at 10 nM (%); for inhibition at 0.5 µM: MV4-11, 500 nM, read-out: Inhibition Rate at 500 nM (%). Put shortly:
as §1

For assay [1], the target named is T1, human Cereblon WT GST-tagged protein (Homo sapiens, UniProt Q96SW2).
T1 construct: purchased CISBIO 64BDCRBNPEH
T1 sequence (Q96SW2 whole entry): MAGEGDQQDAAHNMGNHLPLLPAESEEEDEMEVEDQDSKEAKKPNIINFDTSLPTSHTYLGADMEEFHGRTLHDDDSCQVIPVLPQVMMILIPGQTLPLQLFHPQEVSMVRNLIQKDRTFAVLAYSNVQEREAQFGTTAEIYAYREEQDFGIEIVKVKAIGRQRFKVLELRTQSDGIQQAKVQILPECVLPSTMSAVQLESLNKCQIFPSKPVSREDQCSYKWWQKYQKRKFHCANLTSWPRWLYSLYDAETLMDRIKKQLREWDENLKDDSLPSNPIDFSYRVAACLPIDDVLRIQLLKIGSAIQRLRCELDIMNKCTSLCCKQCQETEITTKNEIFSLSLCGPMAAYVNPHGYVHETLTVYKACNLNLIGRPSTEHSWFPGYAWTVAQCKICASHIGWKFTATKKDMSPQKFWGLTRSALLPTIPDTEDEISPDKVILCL
Description: CRBN-binding affinity, HTRF (CEREBLON BINDING kit). The settings on record: for inhibition at 0.5 µM: read-out: Inhibition Rate at 0.5 µM (%); for inhibition at 2 µM: read-out: Inhibition Rate at 2 µM (%). Put shortly: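 Competitive HTRF binding: compounds diluted in diluent #9 incubated with GST-tagged wild-type human Cereblon, thalidomide-Red tracer and anti-GST Eu antibody. Final compound concentrations 2 µM and 0.5 µM.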

The next assay deals with T2, ALK (Homo sapiens, UniProt Q96SW2+Q9HC35+Q9UM73).
T2 construct: endogenous in cells; host or cells: H2228
T2 sequence (Q9HC35+Q9UM73 fused): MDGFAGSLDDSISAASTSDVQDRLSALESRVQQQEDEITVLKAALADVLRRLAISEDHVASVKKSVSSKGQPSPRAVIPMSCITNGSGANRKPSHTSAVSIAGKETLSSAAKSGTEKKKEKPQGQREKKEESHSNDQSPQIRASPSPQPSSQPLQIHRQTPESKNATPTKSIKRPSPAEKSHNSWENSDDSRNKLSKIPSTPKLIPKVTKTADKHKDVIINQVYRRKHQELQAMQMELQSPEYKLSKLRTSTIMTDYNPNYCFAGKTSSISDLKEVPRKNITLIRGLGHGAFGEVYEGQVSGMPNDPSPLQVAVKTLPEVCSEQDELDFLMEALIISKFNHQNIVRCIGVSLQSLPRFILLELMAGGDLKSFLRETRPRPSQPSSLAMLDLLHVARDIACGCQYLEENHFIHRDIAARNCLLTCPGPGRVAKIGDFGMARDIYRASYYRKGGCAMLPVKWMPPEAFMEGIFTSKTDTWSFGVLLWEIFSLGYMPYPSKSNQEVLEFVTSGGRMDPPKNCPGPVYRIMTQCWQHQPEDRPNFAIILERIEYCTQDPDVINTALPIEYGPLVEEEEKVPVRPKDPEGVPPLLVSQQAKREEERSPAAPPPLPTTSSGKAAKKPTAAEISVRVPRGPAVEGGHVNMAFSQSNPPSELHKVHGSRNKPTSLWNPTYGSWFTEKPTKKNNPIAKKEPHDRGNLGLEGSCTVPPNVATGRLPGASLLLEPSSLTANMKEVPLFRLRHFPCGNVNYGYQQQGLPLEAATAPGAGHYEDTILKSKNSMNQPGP
T2 sequence (Q96SW2 whole entry): as the sequence (Q96SW2 whole entry) above
T2 sequence (Q16531 whole entry partner): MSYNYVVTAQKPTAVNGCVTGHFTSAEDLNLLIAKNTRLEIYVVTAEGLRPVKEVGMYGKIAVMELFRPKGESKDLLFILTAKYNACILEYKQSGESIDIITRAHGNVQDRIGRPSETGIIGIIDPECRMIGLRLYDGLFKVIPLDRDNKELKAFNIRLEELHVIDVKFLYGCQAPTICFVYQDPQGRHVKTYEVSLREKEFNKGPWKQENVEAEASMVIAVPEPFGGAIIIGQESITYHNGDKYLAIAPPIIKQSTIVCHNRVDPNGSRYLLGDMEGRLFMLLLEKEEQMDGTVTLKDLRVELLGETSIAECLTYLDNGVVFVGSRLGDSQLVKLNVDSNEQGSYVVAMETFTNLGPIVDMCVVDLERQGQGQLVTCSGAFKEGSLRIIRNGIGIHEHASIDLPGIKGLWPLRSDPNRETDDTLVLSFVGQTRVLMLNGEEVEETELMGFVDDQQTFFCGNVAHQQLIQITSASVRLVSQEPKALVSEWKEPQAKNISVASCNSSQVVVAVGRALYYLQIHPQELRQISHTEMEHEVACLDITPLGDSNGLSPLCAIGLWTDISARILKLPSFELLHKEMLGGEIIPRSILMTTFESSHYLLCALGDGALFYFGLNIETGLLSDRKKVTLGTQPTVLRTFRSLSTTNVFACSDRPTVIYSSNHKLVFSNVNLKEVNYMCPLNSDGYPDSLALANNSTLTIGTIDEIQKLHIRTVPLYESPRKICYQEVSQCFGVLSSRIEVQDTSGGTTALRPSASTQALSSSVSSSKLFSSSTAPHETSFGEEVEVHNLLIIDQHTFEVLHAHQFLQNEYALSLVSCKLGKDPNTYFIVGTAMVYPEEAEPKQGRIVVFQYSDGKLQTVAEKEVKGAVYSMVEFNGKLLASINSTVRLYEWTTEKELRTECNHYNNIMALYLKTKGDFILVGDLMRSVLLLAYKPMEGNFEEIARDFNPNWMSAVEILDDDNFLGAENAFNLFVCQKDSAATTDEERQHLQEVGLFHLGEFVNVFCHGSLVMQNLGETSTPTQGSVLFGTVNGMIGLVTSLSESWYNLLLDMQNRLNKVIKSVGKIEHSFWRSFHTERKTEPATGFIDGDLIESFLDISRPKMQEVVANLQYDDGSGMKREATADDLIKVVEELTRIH
Description: Western blot, target protein degradation in H2228 Cell. It counts as cell-based. The note with it: substrate protein remaining %, treated at 500 nM and 50 nM, 24 hours. How it is done: (§2) Conventional Western blot assay was performed to evaluate the effects of the compounds of the present disclosure on the expression of target proteins in cells.
(§3) (1) Cell Seeding and Protein Harvesting: The selected cells were processed according to the cell seeding procedure and protein harvesting procedure in Table II-2. Table II-2 Cell Seeding and Protein Harvesting Procedures
(§4) (2) To the collected supernatant, 5X SDS sample loading buffer was added, followed by denaturation at 95°C for 5 minutes. The denatured samples were then separated by SDS-PAGE electrophoresis on a polyacrylamide gel. Proteins were transferred to a nitrocellulose membrane (0.45 µm NC membrane), blocked with blocking buffer at room temperature for 1 hour, and subjected to antibody incubation and development procedures according to the antibody manufacturer's instructions (Cell Signaling Technology).
(§5) Half-Maximal Degradation Concentration value (the drug concentration required for degrading proteins by 50%, abbreviated as DC50) reads method: comparing the grayscale values of Western blot bands from drug-treated samples with those from blank DMSO-treated controls, and identifying the drug concentration range at which the grayscale value is half that of the DMSO-treated control bands.
(§6) DC50 values can be calculated using ImageJ software to measure grayscale values of Western blot bands from drug-treated samples. The concentration-response curve is fitted to estimate the drug concentration corresponding to half the grayscale value.
(§7) Target protein remaining (%) refers to the percentage of target protein remaining in cells after treatment with protein degrader compounds.
(§8) Calculation method for target protein remaining (%): Use ImageJ software to measure grayscale values of Western blot bands from drug (protein degrader)-treated samples. The grayscale value of drug-treated bands is divided by that of internal control protein bands, and the resulting quotient is normalized to obtain the relative percentage of remaining target protein after protein degrader treatment. Target protein degradation rate(%) = 1−target protein remaining(%). [formula]
(In western blotting, separated proteins are transferred to a membrane and probed.)

The next assay has as its target T3, FAK (Homo sapiens, UniProt Q05397).
T3 construct: endogenous in cells; host or cells: A549
The assay can be described thus: Western blot, target protein degradation in A549 Cell. It counts as cell-based. The note with it: substrate protein remaining %, treated at 500 nM and 50 nM, 24 hours. How it is done: as §2, §3, §4, §5, §6, §7, §8

In another assay the test system is SW620. The assay can be described thus: Tumor cell proliferation inhibition (CellTiter-Meiluncell Luminescent Cell Viability Assay). It counts as cell-based. The note with it: Homo sapiens, 96 hours, Table I-12, FAK inhibitors. Put shortly:
as §1

SMILES strings stand for the structures. Like-named read-outs stand apart in the source and are kept apart here.

T3 sequence (Q05397 whole entry): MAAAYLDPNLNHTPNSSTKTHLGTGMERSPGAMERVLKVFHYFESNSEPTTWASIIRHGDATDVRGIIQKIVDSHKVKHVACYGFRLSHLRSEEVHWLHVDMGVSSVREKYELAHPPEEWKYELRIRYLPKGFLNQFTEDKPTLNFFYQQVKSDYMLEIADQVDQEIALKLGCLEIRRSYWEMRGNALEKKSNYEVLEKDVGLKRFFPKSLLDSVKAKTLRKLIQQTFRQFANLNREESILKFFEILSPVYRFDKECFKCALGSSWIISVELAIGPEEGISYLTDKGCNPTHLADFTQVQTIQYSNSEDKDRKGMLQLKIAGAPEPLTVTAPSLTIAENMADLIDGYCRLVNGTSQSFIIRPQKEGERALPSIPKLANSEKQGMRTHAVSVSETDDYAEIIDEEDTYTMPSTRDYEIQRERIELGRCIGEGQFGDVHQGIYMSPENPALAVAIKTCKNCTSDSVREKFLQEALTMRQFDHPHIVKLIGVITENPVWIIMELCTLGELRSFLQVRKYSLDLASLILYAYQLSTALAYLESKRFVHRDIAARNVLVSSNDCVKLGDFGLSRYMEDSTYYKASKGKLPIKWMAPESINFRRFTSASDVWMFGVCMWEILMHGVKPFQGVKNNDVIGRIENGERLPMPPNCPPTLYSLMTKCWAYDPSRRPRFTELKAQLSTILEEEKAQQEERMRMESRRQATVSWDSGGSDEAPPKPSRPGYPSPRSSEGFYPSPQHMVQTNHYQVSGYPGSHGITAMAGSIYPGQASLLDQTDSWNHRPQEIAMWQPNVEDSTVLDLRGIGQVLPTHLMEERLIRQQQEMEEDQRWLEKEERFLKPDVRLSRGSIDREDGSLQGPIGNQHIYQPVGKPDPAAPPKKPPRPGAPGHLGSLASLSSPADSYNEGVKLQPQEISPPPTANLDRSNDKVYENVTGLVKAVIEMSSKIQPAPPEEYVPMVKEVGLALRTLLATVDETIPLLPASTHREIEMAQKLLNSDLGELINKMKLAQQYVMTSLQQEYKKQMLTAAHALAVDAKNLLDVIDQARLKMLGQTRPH

Usually inhibition stands for the change of the read-out against control, counted positive when it falls. On to `COc1cc(N2CCN(Cc3ccc4c(c3)CN(C3CCC(=O)NC3=O)C4=S)CC2)ccc1Nc1ncc(Cl)c(Nc2ccccc2P(C)(C)=O)n1` (centres unmarked) [GT-08675, 3-(5-((4-(4-((5-chloro-4-((2-(dimethylphosphoryl)phenyl)amino)pyrimidin-2-yl)amino)-3-methoxyphenyl)piperazin-1-yl)methyl)-1-thioxoisoindolin-2-yl)piperidine-2,6-dione], for which the inhibition at 0.01 µM with MM.1S (Table I-2, ALK inhibitors) was in the range of 10 to 20%; in the assay with MCF-7, 20 to 30%; in the assay with MV-4-11 (Table I-2, ALK inhibitors), 10 to 20%. Besides, the inhibition at 0.5 µM was in the range of 30 to 40% in the assay on MM.1S (Table I-2, ALK inhibitors); 40 to 50% in the assay on MCF-7; 70 to 80% with MV-4-11 (Table I-2, ALK inhibitors); 80 to 100% in assay [1]. Moreover, the inhibition at 2 µM in assay [1] was 80 to 100%. Besides, the “Degradation of substrate protein ALK” value at ALK was “A (0% ≤ substrate protein remaining % ≤ 80%)”.

`Cc1cc(Nc2ncc(Cl)c(Nc3ccccc3S(=O)(=O)C(C)C)n2)c(OC(C)C)cc1C1CCN(Cc2cccc3c2CN(C2CCC(=O)NC2=O)C3=S)CC1` (centres unmarked) [GT-08676, 3-(4-((4-(4-((5-chloro-4-((2-(isopropylsulfonyl)pheny 1)amino)pyrimidin-2-yl)amino)-5-isopropoxy-2-methylphenyl)piperidin-1-yl)methyl)-1-thioxoisoindolin-2-yl)piperidine-2,6-dione]: the inhibition at 0.01 µM in the assay with MM.1S (Table I-2, ALK inhibitors) is 10 to 20%; in the assay with MCF-7 it was 40 to 50%; with MV-4-11 (Table I-2, ALK inhibitors), 40 to 50%. The inhibition at 0.5 µM was in the range of 30 to 40% with MM.1S (Table I-2, ALK inhibitors); 60 to 70% in the assay with MCF-7; 60 to 70% with MV-4-11 (Table I-2, ALK inhibitors); 40 to 53% in assay [1]. Besides, the inhibition at 2 µM in assay [1] lay in the range of 60 to 80%. Moreover, the “Degradation of substrate protein ALK” value at ALK is “A (0% ≤ substrate protein remaining % ≤ 80%)”.

On to `COc1cc(N2CCN(Cc3ccc4c(c3)C(=S)N(C3CCC(=O)NC3=O)C4)CC2)ccc1Nc1ncc(Cl)c(Nc2ccccc2P(C)(C)=O)n1` (centres unmarked) [GT-08679, 3-(6-((4-(4-((5-chloro-4-((2-(dimethylphosphoryl)phenyl)amino)pyrimidin-2-yl)amino)-3-methoxyphenyl)piperazin-1-yl)methyl)-1-thioxoisoindolin-2-yl)piperidine-2,6-dione], for which the inhibition at 0.01 µM with MM.1S (Table I-2, ALK inhibitors) fell in the range of 10 to 20%; in the assay on MCF-7, 20 to 30%; in the assay on MV-4-11 (Table I-2, ALK inhibitors), 50 to 60%. Moreover, the inhibition at 0.5 µM is 20 to 30% with MM.1S (Table I-2, ALK inhibitors); 40 to 50% in the assay on MCF-7; 80 to 100% with MV-4-11 (Table I-2, ALK inhibitors); 60 to 80% in assay [1]. The inhibition at 2 µM in assay [1] fell in the range of 80 to 100%. Further, the “Degradation of substrate protein ALK” value on ALK was “A (0% ≤ substrate protein remaining % ≤ 80%)”.

As for `CN(c1nccnc1CNc1nc(Nc2ccc(N3CCN(Cc4ccc5c(c4)CN(C4CCC(=O)NC4=O)C5=S)CC3)cc2)ncc1C(F)(F)F)S(C)(=O)=O` (centres unmarked) [GT-08779, N-(3-(((2-((4-(4-((2-(2,6-dioxopiperidin-3-yl)-1-thioxoisoindolin-5-yl)methyl)piperazin-1-yl)phenyl)amino)-5-(trifluoromethyl)pyrimidin-4-yl)amino)methyl)pyrazin-2-yl)-N-methylmethanesulfonamide], in the assay on MV-4-11 (Table I-12, FAK inhibitors), the inhibition at 0.01 µM lay in the range of 10 to 20% and the inhibition at 0.5 µM is 70 to 80%. In assay [1], the inhibition at 0.5 µM lay in the range of 30 to 40% and the inhibition at 2 µM was in the range of 80 to 100%. The “Degradation of substrate protein FAK” value on FAK was “A (0% ≤ substrate protein remaining % ≤ 80%)”.

As for `CS(=O)(=O)c1cccc(CNc2nc(Nc3ccc(N4CCN(Cc5ccc6c(c5)CN(C5CCC(=O)NC5=O)C6=S)CC4)cc3)ncc2C(F)(F)F)c1` (centres unmarked) [GT-08780, 3-(5-((4-(4-((4-((3-(methylsulfonyl)benzyl)amino)-5-(trifluoromethyl)pyrimidin-2-yl)amino)phenyl)piperazin-1-yl)methyl)-1-thioxoisoindolin-2-yl)piperidine-2,6-dione], the inhibition at 0.01 µM in the assay with MM.1S (Table I-12, FAK inhibitors) is 20 to 30%; in the assay on SW620 (SW-620, 10 nM, read-out: Inhibition Rate at 10 nM (%)), 10 to 20%; in the assay on MV-4-11 (Table I-12, FAK inhibitors), 20 to 30%. For the same compound, the inhibition at 0.5 µM lay within 40 to 50% in the assay with MM.1S (Table I-12, FAK inhibitors); 40 to 50% in the assay on SW620 (SW-620, 500 nM, read-out: Inhibition Rate at 500 nM (%)); 70 to 80% with MV-4-11 (Table I-12, FAK inhibitors). Also, the “Degradation of substrate protein FAK” value at FAK is given as “A (0% ≤ substrate protein remaining % ≤ 80%)”.

As for `CN(c1cccc(CNc2nc(Nc3ccc(N4CCN(Cc5ccc6c(c5)CN(C5CCC(=O)NC5=O)C6=S)CC4)cc3)ncc2C(F)(F)F)c1)S(C)(=O)=O` (centres unmarked) [GT-08781, N-(3-(((2-((4-(4-((2-(2,6-dioxopiperidin-3-yl)-1-thioxoisoindolin-5-yl)methyl)piperazin-1-yl)phenyl)amino)-5-(trifluoromethyl)pyrimidin-4-yl)amino)methyl)phenyl) -N-methylmethanesulfonamide], in the assay with MV-4-11 (Table I-12, FAK inhibitors), the inhibition at 0.01 µM was in the range of 5 to 10% and the inhibition at 0.5 µM was in the range of 60 to 70%. Moreover, in assay [1], the inhibition at 0.5 µM is 53 to 60% and the inhibition at 2 µM fell in the range of 60 to 80%. The “Degradation of substrate protein FAK” value at FAK is “A (0% ≤ substrate protein remaining % ≤ 80%)”.

Take `CNC(=O)c1ccccc1Nc1cc(Nc2cc(C)c(C3CCN(Cc4ccc5c(c4)CN(C4CCC(=O)NC4=O)C5=S)CC3)cc2OC(C)C)ncc1C(F)(F)F` (centres unmarked) [GT-08782, 2-((2-((4-(1-((2-(2,6-dioxopiperidin-3-yl)-1-thioxoisoindolin-5-yl)methyl)piperidin-4-yl)-2-isopropoxy-5-methylphenyl)amino)-5-(trifluoromethyl)pyridin-4-yl)amino)-N-methylbenzamide]: the “Degradation of substrate protein FAK” value at FAK is reported as “A (0% ≤ substrate protein remaining % ≤ 80%)”.

In the case of `CN(c1nccnc1CNc1nc(Nc2ccc(N3CCN(Cc4cccc5c4CN(C4CCC(=O)NC4=O)C5=S)CC3)cc2)ncc1C(F)(F)F)S(C)(=O)=O` (centres unmarked) [GT-08783, N-(3-(((2-((4-(4-((2-(2,6-dioxopiperidin-3-yl)-1-thioxoisoindolin-4-yl)methyl)piperazin-1-yl)phenyl)amino)-5-(trifluoromethyl)pyrimidin-4-yl)amino)methyl)pyrazin-2-yl)-N-methylmethanesulfonamide], in the assay with MV-4-11 (Table I-12, FAK inhibitors), the inhibition at 0.01 µM lay in the range of 20 to 30% and the inhibition at 0.5 µM lay within 70 to 80%. In addition, in assay [1], the inhibition at 0.5 µM is 40 to 53% and the inhibition at 2 µM was in the range of 60 to 80%. For the same compound, at FAK, the “Degradation of substrate protein FAK” value is given as “A (0% ≤ substrate protein remaining % ≤ 80%)”.

For `CS(=O)(=O)c1cccc(CNc2nc(Nc3ccc(N4CCN(Cc5cccc6c5CN(C5CCC(=O)NC5=O)C6=S)CC4)cc3)ncc2C(F)(F)F)c1` (centres unmarked) [GT-08784, 3-(4-((4-(4-((4-((3-(methylsulfonyl)benzyl)amino)-5-(trifluoromethyl)pyrimidin-2-yl)amino)phenyl)piperazin-1-yl)methyl)-1-thioxoisoindolin-2-yl)piperidine-2,6-dione], in assay [1], the inhibition at 0.5 µM fell in the range of 53 to 60% and the inhibition at 2 µM is 80 to 100%. The “Degradation of substrate protein FAK” value on FAK is recorded as “A (0% ≤ substrate protein remaining % ≤ 80%)”.

The values are drawn from patent publication EP4745138A1, “THIO-GLUTARIMIDO ISOINDOLINONE DERIVATIVE, BIFUNCTIONAL PROTEIN DEGRADER CONTAINING SAME, AND USES THEREOF” (Gluetacs Therapeutics (Shanghai) Co., Ltd., priority 2023, dated 2025).
